Assay results: PubChem BioAssay (NCI)
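Each compound was tested at five concentrations against cells in 96-well plates for 48 hours. The concentration for 50% growth inhibition is given as GI50. TGI: concentration producing complete growth inhibition.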

Legend:
Experiment in all cases: inhibition of tumour cell growth, NCI panel, 48 h
[1] = system: A498 renal
[2] = system: HCC-2998 colon
[3] = system: HL-60(TB) leukemia
[4] = system: PC-3 prostate
[5] = system: CAKI-1 renal
[6] = system: HOP-62 NSCLC
[7] = system: HT29 colon
[8] = system: NCI/ADR-RES ovarian
[9] = system: RXF 393 renal
[10] = system: U251 CNS

SMILES	GI50 [1] [µM]	TGI [1] [µM]	GI50 [2] [µM]	TGI [2] [µM]	GI50 [3] [µM]	TGI [3] [µM]	GI50 [4] [µM]	TGI [4] [µM]	TGI [5] [µM]	TGI [6] [µM]	TGI [7] [µM]	TGI [8] [µM]	TGI [9] [µM]	TGI [10] [µM]	GI50 [5] [µM]	GI50 [7] [µM]	GI50 [8] [µM]	GI50 [9] [µM]	GI50 [10] [µM]
CCN1CCN(Cc2ccc(NC(=O)Nc3ccc(-n4ccc5c(NC(=O)c6ccccc6)nccc54)cc3)cc2C(F)(F)F)CC1	5.17	19.1	1.23	2.54	1.71	7.91	1.16	4.68	–	–	–	–	–	–	–	–	–	–	–
N#C/C(=C\c1cccc(Br)c1)c1nc2ccccc2c(=O)[nH]1	–	–	–	> 100	–	> 100	–	> 100	> 100	62.7	> 100	> 100	> 100	> 100	–	–	–	–	–
NC(Cc1[nH]nc2ccccc12)C(=O)O (stereo not drawn)	–	> 100	–	> 100	–	> 100	–	> 100	> 100	> 100	> 100	> 100	> 100	> 100	–	–	–	–	–
Nc1c(S(N)(=O)=O)cc(S(N)(=O)=O)cc1S(N)(=O)=O	–	> 100	–	> 100	–	–	–	> 100	> 100	> 100	> 100	> 100	> 100	> 100	–	–	–	–	–
O=c1c(-c2ccccc2)c(SCCN2CCCCCC2)n(-c2ccccc2)c(=S)n1-c1ccccc1	–	56.7	–	12.9	–	46.9	–	–	99.1	> 100	–	> 100	98.6	–	–	–	–	–	–
Cn1c2c(c3ccccc31)CCN1C(=O)C34CCCC3CC21S4 (stereo not drawn)	–	> 100	–	–	–	> 100	–	> 100	> 100	> 100	> 100	> 100	> 100	> 100	–	–	–	–	–
CCC(=O)Nc1ccc(NS(=O)(=O)c2ccc(Cl)cc2)cc1	–	> 100	–	> 100	–	> 100	–	> 100	> 100	> 100	> 100	> 100	> 100	–	–	–	–	–	–
N#Cc1ccc(-c2nc(C#N)c(N)o2)cc1	–	–	–	> 10	–	> 10	–	> 10	> 10	> 10	> 10	> 10	> 10	–	–	–	–	–	–
N#Cc1nc(CCCN2C(=O)c3ccccc3C2=O)oc1N	–	–	–	> 100	–	–	–	> 100	> 100	> 100	> 100	> 100	> 100	> 100	–	–	–	–	–
C=C(C)[C@H]1CC(=O)/C(C)=C\CC/C(C)=C/CC[C@@]2(C)O[C@@H]2C1	–	> 100	–	93.1	–	66.2	–	64.5	9.41	> 100	33.7	56	–	49.8	–	–	–	–	–
Oc1c(OCc2nnc(CCCCCCCCc3nnc(COc4ccc5ccccc5c4O)o3)o2)ccc2ccccc12	–	> 100	–	> 100	–	–	–	> 100	> 100	–	> 100	> 100	> 100	> 100	–	–	–	–	–
COc1cc(OC)cc(Oc2nc3cc(F)c(F)cc3nc2-c2ccccc2)c1	–	> 100	–	–	–	> 100	–	> 100	> 100	> 100	> 100	> 100	> 100	> 100	–	–	–	–	–
O=C1CC(c2ccccc2Cl)C2(C(=O)NC(=O)NC2=O)C(c2ccccc2Cl)C1 (stereo not drawn)	–	> 100	–	> 100	–	> 100	–	> 100	–	> 100	> 100	> 100	85.2	> 100	–	–	–	–	–
Cc1ccc2c(c1C)CC1(Cc3c(C)ccc(C)c3C1=O)C2=O (stereo not drawn)	–	> 100	–	> 100	–	> 100	–	–	> 100	–	> 100	> 100	> 100	> 100	–	–	–	–	–
CN(C)CCNc1c([N+](=O)[O-])sc2ccc(Cl)cc12	–	> 100	–	> 100	–	> 100	–	> 100	–	> 100	> 100	> 100	82.8	78.3	–	–	–	–	–
CC1CCc2sc3nc4n(c(=O)c3c2C1)CC(C)S4 (stereo not drawn)	–	–	–	42	–	–	–	62.9	> 100	> 100	33.4	> 100	55.2	> 100	–	–	–	–	–
Cc1cccc(NS(=O)(=O)c2ccc(N=Nc3c(O)c(C(=O)O)cc4ccccc34)cc2)n1	–	–	–	> 100	–	> 100	–	> 100	> 100	> 100	> 100	> 100	> 100	> 100	–	–	–	–	–
NCCN(CCN(C(=O)Nc1ccccc1)c1ccccc1)C(=O)Nc1ccccc1	–	40.5	–	44.3	–	74.8	–	90.3	–	34.8	> 100	> 100	34.5	> 100	–	–	–	–	–
C=C1CC(COc2ccc3c(C)c(C)c(=O)oc3c2C)(c2ccccc2)OC1=O (stereo not drawn)	–	12.5	–	7.12	–	5.54	–	3.84	3.33	20.8	3.27	8.24	–	20.3	–	–	–	–	–
CCOC(=O)Cn1nnc2cc(Nc3c(C)[n+]([O-])c4cc(F)c(OCC)cc4[n+]3[O-])ccc21	–	> 100	–	–	–	> 100	–	> 100	> 100	89.5	> 100	> 100	> 100	> 100	–	–	–	–	–
O=C1/C(=C/c2ccc(Cl)cc2)CCCc2ccc(F)cc21	–	–	21.2	54.9	17.2	> 100	15.9	48.3	64.5	–	> 100	73.5	52	52.6	22.5	24.2	26.6	24.2	13.4
NC(N)=NS(=O)(=O)c1ccc(NC(=O)c2cccc3c(NNc4ccc(S(N)(=O)=O)cc4)c4ccccc4nc23)cc1	–	–	–	> 100	–	66.2	–	> 100	> 100	> 100	> 100	> 100	> 100	> 100	–	–	–	–	–
